Test systems include A498; ACHN; CCRF-CEM; DLD-1; HCC 2998; HCT-15; HT-29; K562; NCI-H226; NCI-H23; NCI-H460; RPMI-8226; SF-295; SK-MEL-28; SK-MEL-5; SN12C; BT-549; MCF7; MDA-MB-231; T47D.
Common to all, as to assay: NCI anticancer screen, dose series, 48 h

The values that follow come from ChEMBL document CHEMBL1201862, “PubChem BioAssay data set” (2004).

Molecules are shown by their SMILES.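 Compound exposure: 48 hours, 5 concentrations, 96-well plates. GI50 = concentration required for 50% inhibition of growth.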 The source made the active and inactive calls. Cut-off read from the data, not from the text of the source: active = GI50 up to about 1.1 µM and inactive = higher. A value given as a limit tells only on which side of the number the result lay.

For the compound `CCCCCCCCC(C)CCCCCCCCC(=O)OCC(COP(=O)([O-])OCC[N+](C)(C)C)OC(=O)CCCCCCCCC(C)CCCCCCCC` (configuration not stated), the GI50 was > 100 µM (inactive) with A498; > 100 µM (inactive) in the experiment on ACHN; > 100 µM (inactive) in the experiment on CCRF-CEM; > 100 µM (inactive) in the experiment on DLD-1; > 100 µM (inactive) in the experiment on HCC 2998; above 100 µM with HCT-15. Moreover, the GI50 with HT-29, in the experiment with K562, in the experiment on NCI-H226, with NCI-H23, with NCI-H460 and with RPMI-8226 was > 100 µM (inactive) in each case. Also, the GI50 in the experiment with SF-295, in the experiment on SK-MEL-28, with SK-MEL-5 and in the experiment with SN12C was > 100 µM (inactive) in each case.
`Cc1ccc2[nH]c(=O)c(C(C#N)c3ccccc3)nc2c1` (configuration not stated): the GI50 with A498 was > 100 µM (inactive); in the experiment with ACHN, 50.9 µM (inactive); in the experiment with CCRF-CEM, 32.7 µM (inactive); in the experiment on DLD-1 it was 42.6 µM (inactive); in the experiment with HCC 2998 it was 28.2 µM (inactive); with HCT-15, 31.4 µM. The GI50 with HT-29 was 32.8 µM (inactive); in the experiment on K562, 47.9 µM (inactive); in the experiment on NCI-H226 it was 30.1 µM (inactive); in the experiment on NCI-H23 it was 60.8 µM (inactive); in the experiment on NCI-H460 it was 72.3 µM (inactive); in the experiment on RPMI-8226, 15.6 µM (inactive). For the same compound, the GI50 was 30.4 µM (inactive) with SF-295, 60.4 µM (inactive) in the experiment with SK-MEL-28, 19 µM (inactive) in the experiment with SK-MEL-5 and 49.5 µM (inactive) in the experiment on SN12C.
In the case of `S=C(Nc1ccccc1)N(/N=C/C=C/c1ccccc1)c1nnc(-c2ccccc2)c(-c2ccccc2)n1`, the GI50 in the experiment with A498 is 67.5 µM (inactive); in the experiment with ACHN, 60.4 µM (inactive); with CCRF-CEM, 51.2 µM (inactive); in the experiment with DLD-1, 76.4 µM (inactive); in the experiment on HCC 2998, 76.7 µM (inactive); with HCT-15, 82.2 µM. For the same compound, the GI50 is 99.1 µM (inactive) in the experiment on HT-29; 36.6 µM (inactive) with K562; 24.3 µM (inactive) with NCI-H226; 19.6 µM (inactive) with NCI-H23; 67.5 µM (inactive) in the experiment with NCI-H460; 26.1 µM (inactive) in the experiment on RPMI-8226. Moreover, the GI50 in the experiment with SF-295 is 42.9 µM (inactive); in the experiment with SK-MEL-28 it was 54.6 µM (inactive); with SK-MEL-5 it was 30.8 µM (inactive); with SN12C it was > 100 µM (inactive).
`Cc1ccccc1N1C(=O)/C(=C/c2ccc(N(CCC#N)CCC#N)cc2)N=C1c1cc([N+](=O)[O-])ccc1Cl`: the GI50 in the experiment on A498 was > 100 µM (inactive); in the experiment on ACHN it was > 100 µM (inactive); in the experiment with CCRF-CEM, 48.6 µM (inactive); with DLD-1, 79.1 µM (inactive); in the experiment with HCC 2998, > 100 µM (inactive); in the experiment on HCT-15 it was above 100 µM. Moreover, the GI50 in the experiment on HT-29 was > 100 µM (inactive); in the experiment on K562 it was 35.8 µM (inactive); in the experiment on NCI-H226, > 100 µM (inactive); in the experiment on NCI-H23 it was > 100 µM (inactive); in the experiment on NCI-H460, > 100 µM (inactive); with RPMI-8226, 21 µM (inactive). Further, the GI50 in the experiment with SF-295 is 31 µM (inactive); with SK-MEL-28, > 100 µM (inactive); in the experiment on SK-MEL-5 it was 38.5 µM (inactive); in the experiment with SN12C, > 100 µM (inactive).
With `COc1ccc(C2C(Cl)C(=O)N2NC(=O)c2ccc(N)cc2)cc1OC` (configuration not stated), the GI50 with A498 was 16.6 µM (inactive); in the experiment on ACHN, 13.7 µM (inactive); with BT-549, 5.04 µM (inactive); in the experiment on CCRF-CEM, 1.71 µM (inactive); with DLD-1 it was 3.66 µM (inactive); in the experiment on HCC 2998 it was 8.11 µM (inactive). The GI50 was 7.46 µM in the experiment with HCT-15; 2.53 µM (inactive) with HT-29; 3.12 µM (inactive) in the experiment with K562; 9.84 µM (inactive) with MCF7; 14.7 µM (inactive) in the experiment on MDA-MB-231; 18.7 µM (inactive) with NCI-H226. The GI50 in the experiment on NCI-H23 was 6.08 µM (inactive); with NCI-H460, 20.1 µM (inactive); with RPMI-8226, 3.1 µM (inactive); in the experiment with SF-295, 7.16 µM (inactive); with SK-MEL-28 it was 2.48 µM (inactive); in the experiment on SK-MEL-5, 12.2 µM (inactive). The GI50 was 9.95 µM (inactive) in the experiment with SN12C and 11.1 µM (inactive) with T47D.
Consider `OCC(O)C(O)C(O)C1SC(c2ccccc2)=NN1c1ccccc1` (configuration not stated), for which the GI50 was > 88.5 µM (inactive) in the experiment on A498; 64.7 µM (inactive) in the experiment on ACHN; > 100 µM (inactive) with BT-549; > 81.5 µM (inactive) in the experiment on CCRF-CEM; > 100 µM (inactive) in the experiment on DLD-1; > 100 µM (inactive) in the experiment on HCC 2998. Further, the GI50 with HCT-15 was above 100 µM; in the experiment on HT-29 it was > 92 µM (inactive); with K562, > 70.1 µM (inactive); in the experiment on MCF7, > 100 µM (inactive); with MDA-MB-231 it was > 55 µM (inactive); in the experiment with NCI-H226 it was > 76 µM (inactive). In addition, the GI50 in the experiment with NCI-H23 was 45.7 µM (inactive); in the experiment on NCI-H460 it was > 78 µM (inactive); in the experiment on RPMI-8226, > 86.3 µM (inactive); in the experiment with SF-295, 35.1 µM (inactive); in the experiment on SK-MEL-28, > 81.5 µM (inactive); in the experiment on SK-MEL-5, > 78.5 µM (inactive). Moreover, the figures for the GI50 in the experiment with SN12C and with T47D were > 91.8 µM (inactive) and > 46.8 µM (inactive), respectively.
Turning to `CN(C)c1snc2c1c(=O)n(C)c(=O)n2C`, the GI50 in the experiment on A498 is > 100 µM (inactive); in the experiment with ACHN, > 100 µM (inactive); with CCRF-CEM, > 100 µM (inactive); with DLD-1 it was > 100 µM (inactive); in the experiment on HCC 2998 it was > 100 µM (inactive); with HCT-15, above 100 µM. The GI50 in the experiment on HT-29 is > 100 µM (inactive); in the experiment on K562 it was > 100 µM (inactive); in the experiment with NCI-H226, 65.2 µM (inactive); in the experiment on NCI-H23, > 100 µM (inactive); in the experiment with NCI-H460, > 100 µM (inactive); in the experiment on RPMI-8226 it was > 100 µM (inactive). Besides, the GI50 in the experiment on SF-295, with SK-MEL-28, in the experiment with SK-MEL-5 and in the experiment on SN12C was > 100 µM (inactive) throughout.
Regarding `CC(=O)c1cccc(NC(=O)C(=O)C(C2OC(=O)c3ccccc32)[N+](=O)[O-])c1` (configuration not stated), the GI50 in the experiment on A498 is > 100 µM (inactive); in the experiment on ACHN, > 100 µM (inactive); in the experiment on CCRF-CEM it was > 100 µM (inactive); in the experiment on DLD-1, > 100 µM (inactive); with HCC 2998, > 100 µM (inactive); with HCT-15, above 100 µM. The GI50 with HT-29, with K562, with NCI-H226, in the experiment with NCI-H23, in the experiment with NCI-H460 and in the experiment on RPMI-8226 was > 100 µM (inactive) each time. Also, the GI50 with SF-295, in the experiment on SK-MEL-28, in the experiment on SK-MEL-5 and in the experiment with SN12C was > 100 µM (inactive) throughout.
On to `CCN(CC)CCCC(C)NC(=O)c1ccc2c(c1)C(=O)c1ccccc1C2=O` (configuration not stated), for which the GI50 in the experiment on A498 was 20.6 µM (inactive); in the experiment on ACHN, 18.1 µM (inactive); with CCRF-CEM it was 21.7 µM (inactive); with DLD-1, 17.5 µM (inactive); with HCC 2998, 18.1 µM (inactive); in the experiment on HCT-15, 17.9 µM. The GI50 in the experiment on HT-29 was 14 µM (inactive); in the experiment on K562, 18.3 µM (inactive); in the experiment on NCI-H226, 22.3 µM (inactive); in the experiment on NCI-H23, 15.4 µM (inactive); in the experiment with NCI-H460, 16.4 µM (inactive); in the experiment with RPMI-8226, 18.7 µM (inactive). The GI50 with SF-295 is 21.4 µM (inactive); in the experiment with SK-MEL-28, 17.9 µM (inactive); in the experiment with SK-MEL-5, 14.5 µM (inactive); in the experiment with SN12C it was 18.1 µM (inactive).
